Measurements published in PMC12040169 (PLOS Biology, 2025).

Assay: in vitro
Conditions: human, hela cells, % viability

Structure (SMILES)	viability at 28.5 h, 10 µM [%]
CCCNCCc1ccc(NC(=O)Nc2cc(F)cc3c2OCOC3)cc1 [CBK173887T]	97.8
O=C(O)COc1ccccc1/C=N\N1CCN(c2ccccn2)CC1 [CBK262916]	95.9
O=C(NCCCc1ccccn1)c1cc2ccc(F)cc2[nH]1 [CBK283211]	84.4
COc1ccc(CCNc2nc3c(c(=O)n(C)c(=O)n3C)n2Cc2ccccc2Br)cc1OC [CBK267495]	96.7
CC(C)CC(=O)Nc1ccc2nc(SCC(=O)O)sc2c1 [CBK299801]	96.4
Cn1nc(-c2ccc(F)cc2)cc1C(=O)NCCn1ccnc1 [CBK281576]	87.8
O=C1c2ccccc2C(=O)N1CCCSc1nnc(-c2ccncc2)n1-c1ccccc1 [CBK263419]	102
O=C(O)C1CCCN(C(=O)NCc2ccc(F)cc2)C1 (stereo not drawn) [CBK161364]	95.7
CS(=O)(=O)Nc1cc(-c2noc([C@@H]3CCCN3Cc3ccccn3)n2)ccn1 [CBK288885]	87.3
CC(C)Cc1ccc(C(C)c2nc3ccccc3[nH]2)cc1 (stereo not drawn) [CBK261484]	89.7
CN(C)C(=O)C1(c2ccccc2)CCNC1 (stereo not drawn) [CBK023394C]	114
Cn1c(=O)oc2cc(NC(=O)CC3CCN(Cc4cccc(C(F)(F)F)c4)CC3)ccc21 [CBK285953]	90
COc1ccc(Oc2nccnc2N2CCN(CC3CCCCC3)CC2)cc1OC [CBK083064T]	98.6
Cc1cc(NC(=O)CSc2nc(-c3ccc(F)cc3)cc(C(F)(F)F)n2)n(-c2ccccc2)n1 [CBK266248]	102
O=C(c1ccc2c(c1)OCCO2)N1CCN(c2ncccn2)CC1 [CBK144519]	89.5
Cc1cc(C)n(C(=O)c2cccc(S(=O)(=O)N3CCCCCC3)c2)n1 [CBK266727]	102
CCCCCC(=O)Nc1ccc(C(=O)Cn2nc(C(=O)O)c3ccccc3c2=O)cc1 [CBK295628]	104
FC(F)(F)c1ccc(CN2CCCN(c3ccnc(OCC4COc5ccccc5O4)n3)CC2)cc1 (stereo not drawn) [CBK083233T]	93
O=C(NCC1COc2ccccc2O1)N1CCCC(CO)C1 (stereo not drawn) [CBK156030]	91.3
CCCNc1nc(-c2ccc(SC)cc2)cn2ccnc12 [CBK066619]	95.5
O=C(C1=C(O)C(=O)N(Cc2cccnc2)C1c1cccc(Oc2ccccc2)c1)c1ccc(Cl)cc1 (stereo not drawn) [CBK264698]	86.6
COc1ccccc1N1CCN(C[C@H]2C[N@@]3CC[C@H]2C[C@@H]3CNS(C)(=O)=O)CC1 [CBK288770]	87.5

Structure (SMILES)	viability at 28.5 h, 10 µM [%]
C=CCn1c(Cc2csc(NC(=O)c3ccc(OC)cc3O)n2)n[nH]c1=S [CBK296752]	104
Cc1ccc(NS(=O)(=O)c2ccc(CCC(=O)N3CCc4ccccc4C3)cc2)cc1 [CBK267616]	94.9
CCOC(=O)C1CCCN(Cc2nc(-c3ccc(F)cc3F)oc2C)C1 (stereo not drawn) [CBK306749]	94.3
O=S(=O)(c1ccc(F)cc1F)N1CCN(Cc2ccc3c(c2)OCO3)CC1 [CBK074744]	91.7
O=C1Cc2cc3ccccc3cc2C2(CCN(CCC(F)=C(F)F)CC2)N1 [CBK040033]	94.6
CS(=O)(=O)c1ccc(CN2C[C@@H]3OCC(=O)N(Cc4ccc(F)cc4)[C@@H]3C2)cc1 [CBK289690]	119
c1coc(CNc2c(-c3cccs3)nc3cnccn23)c1 [CBK283540]	93.2
O=C(O)c1cccc(NS(=O)(=O)c2ccc(CNC(=O)c3ccc(Cl)cc3)s2)c1 [CBK155085]	104
O=C(COc1ccc(S(=O)(=O)N2CCCCC2)cc1Cl)Nc1ccc2c(c1)OCCO2 [CBK269540]	97
COCCN1C(=O)c2ccc(C(=O)Nc3cc(C(=O)O)cc(C(=O)O)c3)cc2C1=O [CBK268444]	96.5
COc1ccccc1NC(=O)c1ccc(OCC(=O)O)cc1 [CBK265849]	100
CCn1cc(CN(C)Cc2ccon2)c2cc(C(=O)O)ncc21 [CBK307017]	84.7
O=C(O)c1ccccc1CSc1ccccn1 [CBK270213]	98
N#Cc1ccc(C(=O)N2CC[C@H]3NC(=O)N(c4ccccc4)C(=O)[C@H]32)cc1 [CBK289282]	80.5
Cc1ccc(S(=O)(=O)NCC(=O)Nc2ccc3cc(Br)cnc3n2)cc1 [CBK067429]	95.6
O=C(O)CCn1c(=O)cc(C(F)F)c2cn(Cc3ccccc3)nc21 [CBK286881]	91.3
CCCc1c(C(=O)N2CCN(C)CC2)cnn1-c1cc(Cl)cc(Cl)c1 [CBK107375]	103
CCOc1ccc(-c2cc(C(=O)N3CCN(C)CC3)c3ccccc3n2)cc1 [CBK066900]	99
O=C(CCN1CCn2nc(C(O)C3CC3)cc2C1)NCc1cccs1 (stereo not drawn) [CBK306603]	93.1
OCCc1ccc(Nc2cc(-c3ccco3)ncn2)cc1 [CBK090771]	100
O=C(O)C1CC=CCC1C(=O)c1c[nH]c2ccccc12 (stereo not drawn) [CBK286603]	90.7
O=C(Cc1c[nH]c2ccccc12)N1CCC2(CCCN(CCO)C2)C1 (stereo not drawn) [CBK132045]	95.9

Structure (SMILES)	viability at 28.5 h, 10 µM [%]
O=C(COc1ccccc1)Nc1ccccc1CO [CBK263596]	97.9
Cc1ccc([N+](=O)[O-])cc1S(=O)(=O)n1ccc2c(N3CCNCC3)nccc21 [CBK059068C]	96.5
Cc1cc(NC(=O)c2ccccc2O)n(C)n1 [CBK000190]	107
CCn1c2ccccc2c2cc(/C=N/c3cc(S(=O)(=O)c4ccc(O)c(/N=C/c5ccc6c(c5)c5ccccc5n6CC)c4)ccc3O)ccc21 [CBK261229]	76.5
CN(C)CCN1C(=O)C(O)=C(C(=O)c2ccc(S(=O)(=O)N3CCOCC3)cc2)C1c1ccc(Br)cc1 (stereo not drawn) [CBK264693]	93.5
CC(C)(C)OC(=O)NCCC(=O)Oc1ccc2c3c(c(=O)oc2c1)CCCC3 [CBK265008]	89.3
COC(=O)c1c(C(C)(C)C)c(O)c2ccoc2c1OC [CBK007577]	94.2
NC(=O)c1ccc(NC(=O)COc2ccccc2Cl)cc1 [CBK262961]	109
CCOc1ccc(-c2ccnc(NCCNC(C)=O)n2)cc1C(=O)O [CBK306898]	85.1
CN1CCN(C(=O)c2[nH]c3ccccc3c2NS(=O)(=O)c2cccc3cccnc23)CC1 [CBK050041]	87.2
CCN1CCN(C(=O)CCn2c(C(F)F)cc3cccnc32)CC1 [CBK285026]	112
COc1ccccc1C(=O)Nc1ccccc1C(=O)Nc1ccc(C(=O)O)cc1 [CBK268625]	94.7
O=C(Nc1cnn(C23CC4CC(CC(C4)C2)C3)c1)c1cnn2c(C(F)(F)F)cc(-c3ccco3)nc12 [CBK268538]	52.4
Nc1cccc(Sc2ccc(C(F)(F)F)cn2)c1 [CBK089606]	107
Cn1ncc(N2CCN(C(=O)CCCOc3ccccc3)CC2)cc1=O [CBK306937]	84.2
CCCCC(c1cccnc1)N(C)C(=O)c1cnc(C)c(C)c1 (stereo not drawn) [CBK307121]	103
CCCCCC(=O)N1CCc2cc(N3CC(CNC(C)=O)OC3=O)ccc21 (stereo not drawn) [CBK007646]	92.5
CCN1CCN(C(=O)CN(Cc2ccccc2)S(C)(=O)=O)CC1 [CBK266735]	94.6
COc1ccc(-c2c3c(nc4sc(C(=O)N5CCOCC5)c(N)c24)CC(C)(C)CC3=O)cc1 [CBK131884]	91.7
CC(C)c1nc(-c2cc3ccccc3nc2O)no1 [CBK287964]	112
Cc1nc(CC(=O)NC(Cc2ccsc2)c2cccnc2)cs1 (stereo not drawn) [CBK285389]	110
COc1cccc(CN2CCC3(C2)c2[nH]c4c(C)cccc4c2CCN3C(C)=O)c1 (stereo not drawn) [CBK039662]	84.9

Structure (SMILES)	viability at 28.5 h, 10 µM [%]
Cc1cc(CNC(=O)[C@@H]2Cc3cn(C)c4cccc(c34)[C@H](CC(C)C)N2)no1 [CBK289420]	104
Fc1ccccc1CN(CCCn1ccnc1)Cc1ccco1 [CBK282952]	109
COc1ccc2[nH]cc(/C=C3\C(=O)Nc4ncccc43)c2c1 [CBK017826]	88.3
CCCCC(=O)N(C)c1c(C)nc2ccc(C(=O)NCc3cccs3)cn12 [CBK147073]	103
Cc1cc(C)[n+](-c2ccccc2O)c(C)c1 [CBK005458G]	116
COc1cccc(C(=O)N2CCN(S(=O)(=O)c3ccc([N+](=O)[O-])cc3)CC2)c1 [CBK157533]	96.9
Fc1ccc(-c2c[nH]c([C@@H]3COCCN3Cc3ncc[nH]3)n2)cc1 [CBK289263]	95.5
Cc1ccc(-n2c(=O)[nH]c3c(C(=O)Nc4ccccc4)cn(C)c3c2=O)cc1 [CBK287651]	93.9
O=C(NCCCO)C1CCCN(S(=O)(=O)c2ccc3ccccc3c2)C1 (stereo not drawn) [CBK270141]	88.3
CN(C(=O)CSc1ncccc1C#N)c1ccccc1 [CBK288044]	98.3
CCN(CC)CCOc1c(C)cccc1Cl [CBK261950]	95.9
OC(CN1CCC(O)(c2ccc(F)cc2)CC1)c1ccccc1 (stereo not drawn) [CBK282489]	104
CC(=O)c1ccc(S(=O)(=O)Nc2ccc(C)cc2)cc1 [CBK045380]	108
CS(=O)(=O)c1ccc(-c2ccc3ccc(=O)[nH]c3n2)cc1 [CBK073719]	86.7
CSc1ccccc1NC(=O)c1cccn(Cc2ccc(C)cc2)c1=O [CBK294426]	87
Brc1ccc(C2(c3nnc(C4CCCO4)o3)CCOCC2)cc1 (stereo not drawn) [CBK306258]	117
O=S(=O)(c1ccccc1)C1C2C=CC(COC3CCCCO3)(O2)C1S(=O)(=O)c1ccccc1 (stereo not drawn) [CBK020045]	92.6
O=S(=O)(CCN1CCN(Cc2ccccc2)CC1)c1ccc(F)cc1 [CBK074809]	108
Cc1nc2cccnc2n1C1CCN(C(=O)C(C)(C)C)CC1 [CBK282426]	89.2
S=C(Nc1ncn(Cc2ccc(Cl)c(Cl)c2)n1)Nc1ccc(Br)cc1Cl [CBK266940]	92.7

Same assay, conditions: human, hela cells, % viability, bulk resorufin, single well

Structure (SMILES)	viability at 28.5 h, 10 µM [%]
O=C1CCCc2c1c1cccc(C(=O)O)c1n2Cc1ccccc1 [CBK002365]	95.6
